Experimental findings from US7060836B2, “Lactams as tachykinin antagonists” (Pfizer, Inc, priority 2001, dated 2006) are described below.

The target in data set [1] is T1, human NK2 receptor (Homo sapiens, UniProt P21452).
T1 construct: expressed in transfected cells; host or cells: Chinese hamster ovary (CHO) cells, membranes
T1 sequence (P21452 1-398): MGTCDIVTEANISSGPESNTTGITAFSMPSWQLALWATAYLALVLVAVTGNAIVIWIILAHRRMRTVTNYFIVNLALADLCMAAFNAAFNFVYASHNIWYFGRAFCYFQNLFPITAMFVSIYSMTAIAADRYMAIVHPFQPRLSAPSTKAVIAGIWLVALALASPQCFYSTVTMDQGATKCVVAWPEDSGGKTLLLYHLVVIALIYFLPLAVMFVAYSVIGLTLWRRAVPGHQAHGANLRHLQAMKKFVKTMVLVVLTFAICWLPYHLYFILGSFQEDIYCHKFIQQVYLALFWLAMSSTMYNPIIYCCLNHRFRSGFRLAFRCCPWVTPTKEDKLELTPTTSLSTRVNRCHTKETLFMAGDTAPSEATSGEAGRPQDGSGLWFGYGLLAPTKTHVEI
The experiment in a line: Competition with [3H] or [125I] NKA for binding to membranes of CHO cells expressing the cloned human NK2 receptor. As to conditions: membranes from CHO cells expressing cloned human NK2 receptor, 90 min, 25° C. On the procedure: The affinity of the compounds of formula (I), and their salts, for the human NK2 receptor can be assessed in vitro by testing their ability to compete with [^3H] or [^125I] NKA (neurokinin A) for binding to membranes prepared from Chinese hamster ovary cells expressing the cloned human NK2 receptor using a modification of the method described in McLean, S. et al., J. Pharm. Exp. Ther., 267, 472–9 (1993). The membranes are incubated (90 min, 25° C.) with [^3H] or [^125I] NKA and a range of concentrations of the test compound. Non specific binding was determined in the presence of 1 μM SR-48968 (N-[(2S)-4-[4-(acetylamino)-4-phenyl-1-piperidinyl]-2-(3,4-dichlorophenyl)butyl]-N-methyl benzamide).

Molecules are shown by their SMILES.

For `O=C1CC[C@](CCN2CCC(O)(c3ccccn3)CC2)(c2ccc(Cl)c(Cl)c2)CN1c1ccccn1` [Example 92, (5S)-5-(3,4-Dichlorophenyl)-5-{2-[4-hydroxy-4-(2-pyridyl)-1-piperidinyl]ethyl}-1-(2-pyridinyl)-2-piperidinone], the affinity in data set [1], expressed as Ki, was 7 nM.

Take `Cc1cccc(N2C[C@@](CCN3CC(N4CCC(O)CC4)C3)(c3ccc(Cl)c(Cl)c3)CCC2=O)n1` [Example 135a, (5S)-5-(3,4-Dichlorophenyl)-1-(6-methyl-2-pyridinyl)-5-{2-[3-(4-hydroxypiperidinyl)-1-azetidinyl]ethyl}-2-piperidinone]: the Ki (in general, a measure of affinity in units of concentration, obtained from inhibition or displacement) in data set [1] was determined as 3.7 nM.

Turning to `O=C1CC[C@](CCN2CC(N3CCC(O)CC3)C2)(c2ccc(Cl)c(Cl)c2)CN1c1ccccn1` [Example 73, (5S)-5-(3,4-Dichlorophenyl)-5-{2-[3-(4-hydroxy-1-piperidinyl)-1-azetidinyl]ethyl}-1-(2-pyridinyl)-2-piperidinone], the Ki in data set [1] is 2.2 nM.

`Cc1cccc(N2C[C@@](CCN3CCC(O)(c4ccccc4)CC3)(c3ccc(Cl)c(Cl)c3)CCC2=O)n1` [Example 134, (5S)-5-(3,4-Dichlorophenyl)-1-(6-methyl-2-pyridinyl)-5-{{2-[4-hydroxy-4-phenyl]-1-piperidinyl}ethyl}-2-piperidinone] had a Ki in data set [1] of 1.9 nM.

`Cc1cccc(N2C[C@@](CCN3CC(N4CCOCC4)C3)(c3ccc(Cl)c(Cl)c3)CCC2=O)n1` [Example 131, (5S)-5-(3,4-Dichlorophenyl)-1-(6-methyl-2-pyridinyl)-5-{2-[3-(4-morpholinyl)-1-azetidinyl]ethyl}-2-piperidinone] showed a Ki in data set [1] of 3.8 nM.

For the molecule `Cc1cccc(N2CC(CCN3CC(N4CCC(=O)CC4)C3)(c3ccc(Cl)c(Cl)c3)CCC2=O)n1` (centres unmarked) [Example 168, 5-(3,4-Dichlorophenyl)-1-(6-methyl-2-pyridinyl)-5-{2-[3-(4-oxo-1-piperidinyl)-1-azetidinyl]ethyl}-2-piperidinone], in data set [1], affinity was put at a Ki of 2.6 nM.

`Cc1cccc(N2C[C@@](CCN3CC(N4CCC(O)CC4)C3)(c3ccc(Cl)c(Cl)c3)CCC2=O)n1.O=C(O)/C=C/C(=O)O`: the melting point (usually the temperature of the solid-liquid transition) was in the range of 175.5 to 177 °C.

The molecule `COC1CCN(CC[C@]2(c3ccc(Cl)c(Cl)c3)CCC(=O)N(c3ccccn3)C2)CC1` [Example 61, (5S)-5-(3,4-Dichlorophenyl)-5-[2-(4-methoxy-1-piperidinyl)ethyl]-1-(2-pyridinyl)-2-piperidinone] yielded a Ki in data set [1] of 12 nM.

As to `COc1cccc(N2C[C@@](CCN3CC(N4CCOCC4)C3)(c3ccc(Cl)c(Cl)c3)CCC2=O)n1` [Example 119, (5S)-5-(3,4-Dichlorophenyl)-1-(6-methoxy-2-pyridinyl)-5-{2-[3-(4-morpholinyl)-1-azetidinyl]ethyl}-2-piperidinone], the Ki in data set [1] worked out at 5.4 nM.

Molecule `CC(=O)N(C)C1CCN(CC[C@]2(c3ccc(Cl)c(Cl)c3)CCC(=O)N(c3ccccn3)C2)CC1` [Example 158, N-(1-{2-[(3S)-3-(3,4-Dichlorophenyl)-6-oxo-1-(2-pyridinyl)piperidinyl]ethyl}-4-piperidinyl)-N-methylacetamide] had a Ki in data set [1] of 8 nM.

The molecule `CC(=O)NC1(c2ccccc2)CCN(CC[C@]2(c3ccc(Cl)c(Cl)c3)CCC(=O)N(c3ccccn3)C2)CC1` [Example 90, N-(1-{2-[(3S)-3-(3,4-Dichlorophenyl)-6-oxo-1-(2-pyridinyl)piperidinyl]ethyl}-4-phenyl-4-piperidinyl)-acetamide] came in with a Ki in data set [1] of 2.4 nM.
